experiment: not given; conditions: WHO 2005 TEF values for PCBs in humans; fraction of the toxicity of 2,3,7,8-TCDD dioxin (reference value 1); cited from earlier work

Point of comparison: `Clc1ccc(-c2cc(Cl)c(Cl)c(Cl)c2Cl)cc1Cl` [PCB #156], “TEF (toxic equivalency factor)” value 0.00003. Against it:
- Clc1cc2c(cc1Cl)Oc1cc(Cl)c(Cl)cc1O2 [2,3,7,8-TCDD, reference compound] — higher, 1
- Clc1ccc(-c2ccc(Cl)c(Cl)c2)cc1Cl [PCB #77, 3,3′,4,4′-tetrachlorobiphenyl] — higher, 0.0001
- Clc1ccc(-c2cc(Cl)c(Cl)c(Cl)c2)cc1 [PCB #81, 3,4,4′,5-tetrachlorobiphenyl] — higher, 0.0003
- Clc1ccc(-c2ccc(Cl)c(Cl)c2Cl)cc1Cl [PCB #105] — the same, 0.00003
- Clc1ccc(-c2cc(Cl)c(Cl)c(Cl)c2Cl)cc1 [PCB #114] — the same, 0.00003
- Clc1ccc(-c2cc(Cl)c(Cl)cc2Cl)cc1Cl [PCB #118] — the same, 0.00003
- Clc1ccc(-c2cc(Cl)c(Cl)c(Cl)c2)c(Cl)c1 [PCB #123] — the same, 0.00003
- Clc1ccc(-c2cc(Cl)c(Cl)c(Cl)c2)cc1Cl [PCB #126, 3,3′,4,4′,5-pentachlorobiphenyl] — higher, 0.1
- Clc1cc(-c2ccc(Cl)c(Cl)c2Cl)cc(Cl)c1Cl [PCB #157] — the same, 0.00003
- Clc1cc(Cl)c(-c2cc(Cl)c(Cl)c(Cl)c2)cc1Cl [PCB #167] — the same, 0.00003
- Clc1cc(-c2cc(Cl)c(Cl)c(Cl)c2)cc(Cl)c1Cl [PCB #169, 3′,4,4′,5,5′-hexachlorobiphenyl] — higher, 0.03
- Clc1cc(Cl)c(-c2cc(Cl)c(Cl)c(Cl)c2Cl)cc1Cl [PCB #180] — lower, 0.00001
- Clc1cc(-c2cc(Cl)c(Cl)c(Cl)c2Cl)cc(Cl)c1Cl [PCB #189] — the same, 0.00003

experiment: levels of seven dioxins and ten furans in squalene samples, as TEQs; conditions: WHO 2005 TEFs; + = 1,2,3,4,6,7,8-HpCDD
Procedure: In addition to measuring PCB content, levels of seven dioxins and ten furans were measured. […] TEQs from PCBs, dioxins and furans for these samples were as follows, measured in pg/g according to WHO 2005 TEFs: […]

For `CC(C)=CCCC(C)=CCCC(C)=CCCC=C(C)CCC=C(C)CCC=C(C)C` [squalene, 2,6,10,15,19,23-hexamethyl-2,6,10,14,18,22-tetracosahexaene], the “TEQ from Dioxins” value was 28.158 ^+ pg/g.

From US9370570B2, “Polychlorinated biphenyls and squalene-containing adjuvants” (priority 2007, dated 2016)
